Test: PK parameters of prodrugs after oral gavage to rats (plasma levels of prodrug and active metabolite by LC/MS/MS)
Format: in vivo
Settings: orally by gavage, 3 mg/kg, 0.5% MC/0.5% Tween 80/99% water, plasma up to 24 hrs post dose, FIGS. 3-5
Protocol: The prodrug whose PK parameters are to be determined can be formulated as a solution in 0.5% MC/0.5% Tween 80/99% water and administered orally by gavage to rats at a dose of 3 mg/kg. Rats are weighed the day before the study. Rat plasma is sampled predose and at 15, 30 min, 1, 2, 3, 4, 6, 8, 12 and 24 hrs post dose using Instech automatic blood sampling equipment. Blood is collected in tubes containing K2-EDTA and 110 uL plasma are extracted for analysis. Rats are fed ad lib and standard IACUC and SOP protocols are followed. Plasma samples and dose samples are analyzed using LC/MS/MS for both the prodrug compound and the active metabolite. PK parameters for both analytes for each subject are calculated using the measured dose of prodrug. The PK parameters of a prodrug of the invention (compound 10) was measured as described in the preceding paragraph, and are depicted in FIG. 3.

| SMILES | in vivo conversion of prodrug into active metabolite |
| --- | --- |
| C[C@@H](N)C(=O)O[C@H]1CC[C@H](N(c2cc(C#CC(C)(C)C)sc2C(=O)O)C(=O)[C@H]2CC[C@H](C)CC2)CC1 [Compound 10] | in vivo converted into the —OH active metabolite |
| CC(C)[C@H](N)C(=O)O[C@H]1CC[C@H](N(c2cc(C#CC(C)(C)C)sc2C(=O)O)C(=O)[C@H]2CC[C@H](C)CC2)CC1 [Compound 1] | in vivo converted into their active metabolites |
| CC(C)C#Cc1cc(N(C(=O)[C@H]2CC[C@H](C)CC2)[C@H]2CC[C@H](OC(=O)[C@H](C)N)CC2)c(C(=O)O)s1 [Compound 11] | in vivo converted into their active metabolites |

Reference: patent publication US20130203706A1, “COMPOUNDS AND METHODS FOR THE TREATMENT OR PREVENTION OF FLAVIVIRUS INFECTIONS” (Vertex Pharmaceuticals Incorporated, priority 2011, published 2013)
